Results as given in patent US9586963B2 (GENFIT, priority 2011, dated 2017).
Counter-ions that a name gives are not always drawn.

Target: T1, Rev-Erb alpha (Homo sapiens, UniProt P20393)
T1 sequence (P20393 284-614 limits assumed): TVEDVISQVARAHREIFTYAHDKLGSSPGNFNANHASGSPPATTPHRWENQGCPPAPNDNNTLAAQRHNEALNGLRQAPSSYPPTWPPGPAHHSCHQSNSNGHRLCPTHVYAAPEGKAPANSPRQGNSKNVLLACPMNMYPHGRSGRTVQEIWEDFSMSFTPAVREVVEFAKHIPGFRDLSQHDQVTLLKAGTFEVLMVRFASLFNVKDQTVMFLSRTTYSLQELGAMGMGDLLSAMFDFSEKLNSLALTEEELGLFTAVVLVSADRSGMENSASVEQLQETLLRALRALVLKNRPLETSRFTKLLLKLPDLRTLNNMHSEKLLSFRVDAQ
Assay: M2H (mammalian two-hybrid) cellular activation assay of Rev-Erb alpha
Format: cell-based
Conditions: M2H assay, HEK293 cells; for EC50: Gal4-Rev-Erb alpha / VP16-NCoR, luciferase reporter; for Emax: relative to DMSO, at the tested dose, read-out: TOP activation
Description: In this system, Rev-Erb alpha or Rev-Erb beta is expressed as a fusion to the Gal4 DNA-binding domain and the cofactor NCoR is expressed as a fusion to the activation domain of the Herpes Simplex Virus tegument protein VP16. These fusion proteins were included in plasmids at a concentration of 1 μg/μL. The pBS-SK+ vector was added to the preparation to adjust the DNA quantity to a fixed value for each condition.
The transfection mix (Jet-PEI protocol, Polyplus transfection) comprised: • 3 mL of Jet PEI Mix (180 μL Jet-Pei and NaCl at 150 mM) and • 3 mL of the DNA Mix or of the DNA Mix control (wherein the Gal4-Rev-Erb alpha plasmid was replaced by a pGal4phi plasmid).
DNA Mix comprised 1.2 mL of DNA and 1.8 mL of NaCl at 150 mM with, in a T225 flask: • 90 ng of Gal4-Rev-Erb alpha, or 90 ng of Gal4-Rev-Erb beta, • 4500 ng of VP16-NCoR, • 27000 ng of Gal4-RE and • 13410 ng of pBS-SK+. Cells
HEK293 cells were cultured in DMEM (Invitrogen 41965) comprising 10% FBS, P/S, 1% glutamine, 1% pyruvate (Invitrogen 11360) and 1% amino acids (Invitrogen 11140). Cells were then batch co-transfected with plasmid vectors (described in the table above) using as Jet-PEI as reagent (Polyplus) following the protocol specified below.
The 6 mL-transfection mix was transferred in a T225 flask. HEK293 cells were then added at a concentration of 12 Millions of cells for 54 mL of medium (DMEM comprising 10% FBS and 1% P/S). Cells incubated over-night at 37° C. and under 5% CO2.
This cell-based assay is performed using 384-well Greiner white plates (Reference 781080). After the incubation, cells were rinsed with PBS, trypsinized, centrifuged and resuspended in free-serum DMEM without phenol red (Invitrogen 31053). Cells were counted and adjusted to 0.5 Million per mL and plated at a concentration of 10,000 cells in 20 μL per well. They were incubated a minimum of 4 hours at 37° C. under 5% CO2. Cells were treated with 20 μL of the compound to analyze (concentration of 2× diluted in DMEM without FBS containing a maximum of 1% DMSO) and incubated over-night (18 hours, 37° C. and 5% CO2). Each compound has been tested at 6 different concentrations to depict a dose-effect allowing the measure of biochemical parameters such as EC50 and TOP activation (%).
Cells were incubated 30 minutes with 40 μL/well of Steady Glow (Promega) and luminescence was read with TECAN Genios Pro (100 ms/w). Four experiments were carried out for each compound.
Each compound has been tested at 6 different concentrations to depict a dose-effect allowing the measure of biochemical parameters such as EC50 and TOP activation (%).
The mammalian two-hybrid system (M2H) assay consists herein in studying the ability of compounds according to the invention to activate Rev-Erbalpha in cells and thus modulate the interaction with its corepressor. The interaction of the two proteins is assessed with the help of the Luciferase reporter gene. HEK293 cells were transfected with two gene constructions: Gal4-RE VP16-NCoR and Gal4-Rev-Erbalpha or with Gal4-RE, sVP16-NCoR and Gal4-Rev-Erb beta.
The ability of compounds according to the invention of activating Rev-Erbalpha alpha or Rev-Erb beta was assessed in the described cell-based assay. EC50 and TOP activation (%) were measured.

Row | EC50 [µM] | Emax [%] | SMILES
1 | 0.1 to 1 |  | Fc1cccc(-c2cccc(Oc3ccc4nnc(Cl)n4n3)c2)c1 [Cpd.3-6, 6-(3′-fluoro-biphenyl-3-yloxy)-3-chloro-[1,2,4]triazolo[4,3-b]pyridazine]
2 | 1 to 6 |  | COc1ccc(-c2cccc(Oc3ccc4nnc(Cl)n4n3)c2)cc1 [Cpd.3-7, 6-(4′-methoxy-biphenyl-3-yloxy)-3-chloro-[1,2,4]triazolo[4,3-b]pyridazine]
3 | 0.1 to 1 |  | FC(F)(F)c1nnc2ccc(Oc3ccccc3-c3ccccc3)nn12 [Cpd.4-2, 6-(biphenyl-2-yloxy)-3-(trifluoromethyl)-[1,2,4]triazolo[4,3-b]pyridazine]
4 | 0.1 to 1 |  | Fc1ccc(-c2ccccc2Oc2ccc3nnc(Cl)n3n2)c(F)c1 [Cpd.4-13, 6-(2′,4′-difluoro-biphenyl-2-yloxy)-3-chloro-[1,2,4]triazolo[4,3-b]pyridazine]
5 | 0.1 to 1 |  | COc1cccc(-c2ccccc2Oc2ccc3nnc(Cl)n3n2)c1 [Cpd.4-16, 6-(3′-methoxy-biphenyl-2-yloxy)-3-chloro-[1,2,4]triazolo[4,3-b]pyridazine]
6 | 0.1 to 1 |  | FC(F)(F)c1cccc(-c2ccccc2Oc2ccc3nnc(Cl)n3n2)c1 [Cpd.4-28, 6-(3′-trifluoromethyl-biphenyl-2-yloxy)-3-chloro-[1,2,4]triazolo[4,3-b]pyridazine]
7 | 0.1 to 1 |  | Clc1cccc(-c2ccccc2Oc2ccc3nnc(Cl)n3n2)c1 [Cpd.4-29, 6-(3′-chloro-biphenyl-2-yloxy)-3-chloro-[1,2,4]triazolo[4,3-b]pyridazine]
8 | 1 to 6 |  | Nc1ccc(Oc2ccc3nnc(Cl)n3n2)c(-c2ccccc2)c1 [Cpd.4-36, 6-(5-amino-biphenyl-2-yloxy)-3-chloro-[1,2,4]triazolo[4,3-b]pyridazine]
9 | 0.1 to 1 |  | Oc1cccc(-c2ccc(C(F)(F)F)cc2Oc2ccc3nnc(Cl)n3n2)c1 [Cpd.4-37, 6-(3′-hydroxy-4-trifluoromethyl-biphenyl-2-yloxy)-3-chloro-[1,2,4]triazolo[4,3-b]pyridazine]
10 | 0.1 to 1 |  | FC(F)(F)c1ccc(Oc2ccc3nnc(Cl)n3n2)c(-c2ccccc2)c1 [Cpd.4-40, 6-(5-trifluoromethyl-biphenyl-2-yloxy)-3-chloro-[1,2,4]triazolo[4,3-b]pyridazine]
11 | 1 to 6 |  | O=C(c1ccccc1)c1cc(Cl)ccc1Oc1ccc2nnc(Cl)n2n1 [Cpd.4-42, (5-chloro-2-(3-chloro-[1,2,4]triazolo[4,3-b]pyridazin-6-yloxy)phenyl)(phenyl)methanone]
12 | < 0.1 |  | COC(=O)c1ccc(-c2ccccc2)c(Oc2ccc3nnc(Cl)n3n2)c1 [Cpd.4-43, 3-chloro-6-(4-methyloxycarbonyl-biphenyl-2-yloxy)-[1,2,4]triazolo[4,3-b]pyridazine]
13 | 1 to 6 |  | Nc1ccc(-c2ccccc2)c(Oc2ccc3nnc(Cl)n3n2)c1 [Cpd.4-48, 3-chloro-6-(4-amino-biphenyl-2-yloxy)-[1,2,4]triazolo[4,3-b]pyridazine]
14 | 1 to 6 |  | CC(=O)Nc1ccc(-c2ccccc2)c(Oc2ccc3nnc(Cl)n3n2)c1 [Cpd.4-49, 3-chloro-6-(4-acetamido-biphenyl-2-yloxy)-[1,2,4]triazolo[4,3-b]pyridazine]
15 | 0.1 to 1 |  | CNc1ccc(-c2ccccc2)c(Oc2ccc3nnc(Cl)n3n2)c1 [Cpd.4-52, 3-chloro-6-(4-N-methylamino-biphenyl-2-yloxy)-[1,2,4]triazolo[4,3-b]pyridazine]
16 | 0.1 to 1 |  | CCCCN(CCCC)c1ccc(Oc2ccc3nnc(Cl)n3n2)c(-c2ccccc2)c1 [Cpd.4-57, 3-chloro-6-(5-dibutylamino-biphenyl-2-yloxy)-[1,2,4]triazolo[4,3-b]pyridazine]
17 | 1 to 6 |  | Fc1cc(Oc2ccc3nnc(C(F)(F)F)n3n2)c(-c2ccccc2)cc1F [Cpd.4-61, 3-trifluoromethyl-6-(4,5-difluorobiphenyl-2-yloxy)-[1,2,4]triazolo[4,3-b]pyridazine]
18 | 1 to 6 |  | Clc1nnc2ccc(Oc3ccc(CN4CCOCC4)cc3-c3ccccc3)nn12 [Cpd.4-62, 3-chloro-6-(5-morpholinomethyl-biphenyl-2-yloxy)-[1,2,4]triazolo[4,3-b]pyridazine]
19 | > 6 | > 130 | CN(C)Cc1ccc(Oc2ccc3nnc(Cl)n3n2)c(-c2ccccc2)c1 [Cpd.4-63, 3-chloro-6-(5-N,N-dimethylaminomethyl-biphenyl-2-yloxy)-[1,2,4]triazolo[4,3-b]pyridazine]
20 | > 6 | > 130 | NCc1ccc(-c2ccccc2)c(Oc2ccc3nnc(Cl)n3n2)c1 [Cpd.4-65, 3-chloro-6-(4-aminomethyl-biphenyl-2-yloxy)-[1,2,4]triazolo[4,3-b]pyridazine]
21 | 1 to 6 |  | OCc1ccc(Oc2ccc3nnc(Cl)n3n2)c(-c2ccccc2)c1 [Cpd.4-66, 3-chloro-6-(5-hydroxymethyl-biphenyl-2-yloxy)-[1,2,4]triazolo[4,3-b]pyridazine]
22 | 0.1 to 1 |  | COC(=O)c1ccc(Oc2ccc3nnc(Cl)n3n2)c(-c2ccccc2)c1 [Cpd.4-69, 3-chloro-6-(5-methyloxycarbonyl-biphenyl-2-yloxy)-[1,2,4]triazolo[4,3-b]pyridazine]
23 | 0.1 to 1 |  | COc1cccc(-c2ccc(C(F)(F)F)cc2Oc2ccc3nnc(Cl)n3n2)c1 [Cpd.4-71, 3-chloro-6-(3′-methoxy-4-trifluoromethyl-biphenyl-2-yloxy)-[1,2,4]triazolo[4,3-b]pyridazine]
24 | 1 to 6 |  | NC(=O)c1cccc(-c2ccc(C(F)(F)F)cc2Oc2ccc3nnc(Cl)n3n2)c1 [Cpd.4-72, 3-chloro-6-(4-trifluoromethyl-3′-aminocarbonyl-biphenyl-2-yloxy)-[1,2,4]triazolo[4,3-b]pyridazine]
25 | 1 to 6 |  | COC(=O)c1cccc(-c2cc(F)ccc2Oc2ccc3nnc(Cl)n3n2)c1 [Cpd.4-75]
26 | 0.1 to 1 |  | COc1cccc(-c2cc(F)ccc2Oc2ccc3nnc(Cl)n3n2)c1 [Cpd.4-76, 3-chloro-6-(5-fluoro-3′ methoxy-biphenyl-2-yloxy)-[1,2,4]triazolo[4,3-b]pyridazine]
27 | 0.1 to 1 |  | Fc1ncccc1-c1ccc(C(F)(F)F)cc1Oc1ccc2nnc(Cl)n2n1 [Cpd.4-78, 3-chloro-6-(2-(2-fluoropyridin-3-yl)-5-(trifluoromethyl)phenoxy)-[1,2,4]triazolo[4,3-b]pyridazine]
28 | 1 to 6 |  | FC(F)(F)c1ccc(-c2ccncc2)c(Oc2ccc3nnc(Cl)n3n2)c1 [Cpd.4-79, 3-chloro-6-(2-(pyridin-4-yl)-5-(trifluoromethyl)phenoxy)-[1,2,4]triazolo[4,3-b]pyridazine hydrochloride]
29 | 0.1 to 1 |  | COc1ncccc1-c1ccc(C(F)(F)F)cc1Oc1ccc2nnc(Cl)n2n1 [Cpd.4-80, 3-chloro-6-(2-(2-methoxypyridin-3-yl)-5-(trifluoromethyl)phenoxy)-[1,2,4]triazolo[4,3-b]pyridazine hydrochloride]

Row | SMILES | EC50 [µM] | Emax [%]
30 | CN(Cc1ccccc1)Cc1ccc(Oc2ccc3nnc(Cl)n3n2)c(-c2ccccc2)c1 | 0.1 to 1 | 
31 | CN(CCc1ccccc1)Cc1ccc(Oc2ccc3nnc(Cl)n3n2)c(-c2ccccc2)c1 | 1 to 6 | 
32 | CN(Cc1ccc(Oc2ccc3nnc(Cl)n3n2)c(-c2ccccc2)c1)C1CCCCC1 | 1 to 6 | 
33 | FC(F)(F)c1cccc(Oc2ccc3nnc(Cl)n3n2)c1-c1ccccc1 | < 0.1 | 
